Here are results for one substance from publication PMC8968665, “Verteporfin is a substrate-selective γ-secretase inhibitor that binds the amyloid precursor protein transmembrane domain” (The Journal of Biological Chemistry, 2022).

Broadly, the IC50 is the concentration that inhibits the measured activity by half.

In one assay the test system is T1, C99.
T1 construct: the transmembrane 99 residue C-terminal (C99) domain; made in house; host or cells: E. coli BL21DE3, pET21b
The assay can be described thus: Glutaraldehyde cross-linking of verteporfin–C99 mixtures. The conditions noted are these: LMPG micelles, versus DMSO control, n=3. More on the design: species or system human. As to the method: C-terminally His-tagged C99 was expressed from E. coli as mentioned above, and the sample was eluted into a buffer containing 0.1% w/v LMPG, 350 mM Imidazole, 100 mM NaCl, pH 7.8. The protein sample was buffer swapped into GA X-linking buffer containing 0.25% w/v LMPG, 250 mM imidazole, 100 mM NaCl, pH 7.8, and the protein was concentrated to a stock of 300 μM C99. Protein stocks were either used right away or flash frozen in LN2 and stored at −80 °C until further use.
On the day of the experiment, fresh glutaraldehyde (from 25% w/v ampoule) was used to prepare serial dilutions and stored on ice. Reaction volumes were set at 50 μl, containing 30 μM C99, 25 mM Imidazole, 100 mM NaCl, pH 7.8, and 2.5% w/v LMPG. For a typical GA reaction setup, the following components were added to Eppendorf tubes in this specific order: 5 μl of 300 μM C99 was added to the bottom of the tube, followed by 6 μl of 20% w/w LMPG solution, then the sample was diluted to 50 μl using 39 μl of GA X-linking buffer. The sample was mixed by vortex and allowed to sit for at least 30 min. After incubation, 1 μl of Verteporfin stock (typically 10 mM in DMSO) was added to the mixture, vortexed, and allowed to incubate for at least another 30 min in the dark. […] Then, SDS loading buffer was added directly to the reaction tubes, and the samples were visualized using SDS-PAGE and analyzed by densitometry using ImageJ. […]

The target of assay [1] is T2, γ-secretase cleavage of Notch-1 TM/JM (Homo sapiens, UniProt P49768+Q92542+Q96BI3+Q9NZ42).
T2 construct: made in house; host or cells: Notch-1 TM/JM: E. coli BL21DE3 Star
In words: γ-Secretase assay, Notch-1 TM/JM cleavage, NICD by anti-V1744 Western blot. It is filed as biochemical. The method, then:
The γ-secretase-dependent proteolysis assays with both substrates (C100-FLAG and HexaHis Notch 1 JM/TM) were performed in a weak zwitterionic detergent (CHAPSO, 3-[(3- cholamidopropyl)dimethylammonio]-2-hydroxy-1-propanesulfonate) solubilized conditions ([79], [80]). C100 is C99 with an added N-terminal Met residue. Stock solution of purified γ-secretase ([81], [82]) was diluted to 30 nM in standard assay buffer containing 50 mM HEPES (pH 7.0), 150 mM NaCl, 0.1% DOPC (phosphatidylcholine), 0.025% DOPE (phosphatidylethanolamine), and 0.25% CHAPSO) and incubated at 37 °C for 30 min, whereupon stock solution of verteporfin or inhibitor (LY411,575) was added to achieve the desired concentration with 1% final DMSO concentration. Proteolytic reactions were initiated by adding purified substrates (either C100-FLAG(79) or HexaHis-Notch 1 JM/TM(77)) and incubating at 37 °C (16 h for C100Flag and 4 h for HexaHis-Notch 1 JM/TM). Reactions were quenched with SDS, and the cleaved intracellular domain products (AICD-FLAG released from C100-FLAG or truncated intracellular domain (NICD) released from the proteolysis of Hexa-His Notch 1 JM/TM) were visualized by Western blot using specific primary antibodies, anti-FLAG antibody for FLAG-tagged AICD, and neoepitope-specific anti-V1744 antibody for NICD ([80], [83], [84]).

In assay [2] the target is T3, γ-secretase cleavage of C100-Flag (C99) (Homo sapiens, UniProt P05067).
T3 construct: C100 is C99 with an added N-terminal Met residue; made in house
The assay can be described thus: γ-Secretase IC50 measurement, Aβ40 sandwich ELISA. As to conditions: 1 nM purified γ-secretase, 2 µM C100-Flag, 2 h, 37 °C, n=1, error of the fit; read-out: IC50, inhibition of Aβ40 production. Format: biochemical. The method, then:
Purified γ-secretase was diluted in standard assay buffer to specified concentrations and incubated at 37 °C for 30 min, followed by the addition of stock solution of verteporfin in DMSO to achieve various final verteporfin concentrations and 2% final DMSO concentration. Purified C99 FLAG was then added to start the proteolytic reactions, which were incubated for 2 h at 37 °C. The concentrations of Aβ40 produced during the proteolysis of C100 FLAG by γ-secretase were determined using a specific sandwich ELISA (Invitrogen). Aβ40 concentrations were plotted as a function of verteporfin concentration, and the resultant sigmoidal curves were fitted to Equation 5 to determine IC50 values ([80], [83]).(5) Y=Min+(Max−Min)/1+(X/IC50)^HillCoefficient
A general note: In an ELISA, binding on a coated surface is turned into a signal by an enzyme label.

Entries after “also recorded” stand apart in the source; their conditions may differ.

T2 sequence (Q92542 34-709, other chains not shown): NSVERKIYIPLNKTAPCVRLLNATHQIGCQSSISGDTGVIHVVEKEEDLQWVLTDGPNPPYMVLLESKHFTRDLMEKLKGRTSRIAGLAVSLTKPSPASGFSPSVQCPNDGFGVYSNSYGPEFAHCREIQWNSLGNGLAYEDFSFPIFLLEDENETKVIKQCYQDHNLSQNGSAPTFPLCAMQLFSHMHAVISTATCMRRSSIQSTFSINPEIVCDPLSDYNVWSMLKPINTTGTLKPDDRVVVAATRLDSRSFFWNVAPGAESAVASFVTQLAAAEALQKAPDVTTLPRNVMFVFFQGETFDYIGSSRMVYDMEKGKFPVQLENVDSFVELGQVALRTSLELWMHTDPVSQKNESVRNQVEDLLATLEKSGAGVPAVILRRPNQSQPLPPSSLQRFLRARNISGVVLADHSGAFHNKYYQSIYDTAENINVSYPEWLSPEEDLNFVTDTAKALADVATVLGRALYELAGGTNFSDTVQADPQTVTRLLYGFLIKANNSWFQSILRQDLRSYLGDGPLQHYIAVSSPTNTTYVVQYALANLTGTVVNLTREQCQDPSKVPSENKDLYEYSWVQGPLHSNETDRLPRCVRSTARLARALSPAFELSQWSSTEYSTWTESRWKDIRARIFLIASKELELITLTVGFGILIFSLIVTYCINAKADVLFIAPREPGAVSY
T2 sequence (Q96BI3 whole entry, other chains not shown): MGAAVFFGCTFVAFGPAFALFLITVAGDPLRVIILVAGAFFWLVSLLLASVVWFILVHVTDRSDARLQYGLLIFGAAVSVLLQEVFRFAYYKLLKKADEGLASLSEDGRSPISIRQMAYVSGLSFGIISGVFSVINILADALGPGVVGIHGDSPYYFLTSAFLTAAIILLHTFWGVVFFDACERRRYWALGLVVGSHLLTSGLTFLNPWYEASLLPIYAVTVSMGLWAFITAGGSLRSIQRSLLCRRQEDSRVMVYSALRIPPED
T2 sequence (Q9NZ42 whole entry, other chains not shown): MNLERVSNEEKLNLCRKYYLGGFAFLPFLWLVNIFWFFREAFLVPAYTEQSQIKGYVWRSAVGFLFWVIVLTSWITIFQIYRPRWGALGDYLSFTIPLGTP
T3 sequence (P05067 672-770 limits assumed): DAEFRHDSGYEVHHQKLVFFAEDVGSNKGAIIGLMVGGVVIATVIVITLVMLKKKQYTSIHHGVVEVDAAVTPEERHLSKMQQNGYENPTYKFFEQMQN

For the substance verteporfin, the “change in C99 oligomeric state (cross-linking)” value in the assay with C99 is “no change in oligomeric state; also recorded: no increase in higher-order C99 species”. In assay [1] (30 nM γ-secretase), the “reduction of Notch-1 cleavage at saturating verteporfin” value is given as “approximately 75%”. The IC50 in assay [1] (30 nM γ-secretase, Notch-1 TM/JM, 4 h, 37 °C, n = 3, estimated, at concentrations above 200 μM, read-out: IC50, inhibition of NICD production) is 240 ± 66 µM; in assay [2], 15 ± 1 µM. In assay [1] (verteporfin at 164 μM (IC50 for C99 cleavage)), the “inhibition of Notch-1 cleavage” value is given as “no inhibition”. Moreover, in assay [1] (verteporfin below ca. 200 μM, relative to 0 verteporfin), the “effect on Notch-1 cleavage at low concentrations” value is on record as “first activated; also recorded: enhanced; also recorded: stimulate”.
